Article PMC7961521 (2021)

Columns and labels:
[1] = test system: 4G (DNA, G4) AGGGTTAGGGTTAGGGTTAGGGTTACCTAGGCATCCTCCAGTTCCTGGAGTCAGTG; assay: fluorescent dye displacement; settings: 100 mM KCl; 10 mM Tris-HCl pH 7.2; B6,5 1 µM displaced; 0.5 µM nucleic acid
[2] = test system: 3G (DNA, G4) TTAGGGTTAGGGTTAGGGTTACCTAGGCATCCTCCAGTTCCTGGAGTCAGTG; assay: fluorescent dye displacement; settings: 100 mM KCl; 10 mM Tris-HCl pH 7.2; B6,5 1 µM displaced; 0.5 µM nucleic acid
[3] = test system: RG4 (RNA, G4) AAGGAAGGGGAAGUCAGGUGGGGCCUGGGGAACCAGGAAGCGGGGAACAGG; assay: fluorescent dye displacement; settings: 100 mM KCl; 10 mM Tris-HCl pH 7.2; B6,5 1 µM displaced; 0.5 µM nucleic acid; 1 equivalent of ligand
[4] = test system: H50 template annealed to primer H50/c49 (DNA, G4) AGGGTTAGGGTTAGGGTTAGGGGCCACCGCAATTGCTATAGTGAGTCGT/ACGACTCACTATAGCAATTGCG; assay: Taq polymerase stop assay; settings: 100 mM KCl, Mg2+; Tris-HCl pH 8.0; extension at 40 °C
[5] = test system: 3G template annealed to primer P31 (DNA, G4) TTAGGGTTAGGGTTAGGGTTACCTAGGCATCCTCCAGTTCCTGGAGTCAGTG/CACTGACTCCAGGAACTGGAGGATGCCTAGG; assay: Taq polymerase stop assay; settings: 100 mM KCl, Mg2+; Tris-HCl pH 8.0; 0 to 100 µM ligand; extension at 40 °C
[6] = test system: 4G (DNA, G4) AGGGTTAGGGTTAGGGTTAGGGTTACCTAGGCATCCTCCAGTTCCTGGAGTCAGTG; assay: fluorescence Job's plot; settings: 100 mM KCl; 1×PBS pH 7.4, 37 °C; total concentration 5 µM
[7] = test system: 4G template annealed to primer P31 (DNA, G4) AGGGTTAGGGTTAGGGTTAGGGTTACCTAGGCATCCTCCAGTTCCTGGAGTCAGTG/CACTGACTCCAGGAACTGGAGGATGCCTAGG; assay: Taq polymerase stop assay; settings: 100 mM KCl, Mg2+; Tris-HCl pH 8.0; 0 to 100 µM ligand; extension at 40 °C
[8] = test system: c49 (C49) template annealed to primer H50/c49 (DNA, G4) TGAGGGTGGGGAGGGTGGGGAAGCCACCGCAATTGCTATAGTGAGTCGT/ACGACTCACTATAGCAATTGCG; assay: Taq polymerase stop assay; settings: 100 mM KCl, Mg2+; Tris-HCl pH 8.0; extension at 50 °C
[9] = test system: 3G (DNA, G4) TTAGGGTTAGGGTTAGGGTTACCTAGGCATCCTCCAGTTCCTGGAGTCAGTG; assay: fluorescence, reporter dye in displacement assay; settings: 100 mM KCl; 10 mM Tris-HCl pH 7.2; dye 1 µM, DNA 0.5 µM
[10] = test system: RG4 (RNA, G4) AAGGAAGGGGAAGUCAGGUGGGGCCUGGGGAACCAGGAAGCGGGGAACAGG; assay: fluorescence Job's plot; settings: 100 mM KCl; 1×PBS pH 7.4, 37 °C; total concentration 5 µM
[11] = test system: 4G (DNA, G4) AGGGTTAGGGTTAGGGTTAGGGTTACCTAGGCATCCTCCAGTTCCTGGAGTCAGTG; assay: fluorescence, reporter dye in displacement assay; settings: 100 mM KCl; 10 mM Tris-HCl pH 7.2; dye 1 µM, DNA 0.5 µM

O=C(c1cc(Cc2n[nH]c(=O)c3ccccc23)ccc1F)N1CCN(C(=O)C2CC2)CC1
binding [1]: yes | binding [2]: weak | % displacement of B6,5 [3]: > 60%

C1=C2Sc3ccccc3N2CCCCCCN2C(=C/C=C/C=C/c3sc4ccccc4[n+]3CCCCCC[n+]3c(sc4ccccc43)/C=C/C=C/1)Sc1ccccc12
binding [4]: yes | binding [5]: yes | binding [6]: yes | binding [7]: yes | binding [8]: yes | binding [9]: yes | binding [10]: yes

CN1CCC[C@H]1CCNC(=O)c1cn2c3c(c(N4CCC(c5cnccn5)C4)c(F)cc3c1=O)Oc1cc3ccccc3cc1-2 (some centres unmarked)
binding [1]: yes | binding [2]: yes | % displacement of B6,5 [3]: > 60%

O=C(/C=C/C=C/c1ccc2c(c1)OCO2)N1CCCCC1
binding [1]: yes | binding [2]: weak

C[n+]1ccc(-c2c3nc(c(-c4cc[n+](C)cc4)c4ccc([nH]4)c(-c4cc[n+](C)cc4)c4nc(c(-c5cc[n+](C)cc5)c5ccc2[nH]5)C=C4)C=C3)cc1
binding [1]: yes | binding [2]: yes | % displacement of B6,5 [3]: > 60%

CN1C(=Cc2cc[n+](C)c3ccccc23)Sc2ccccc21
binding [11]: yes | binding [9]: yes
